Experiments:
hosta = experiment: Phytotoxicity of DMSO sprays on hosta; type: in vivo
Experimental: (§1) Phytotoxicity of DMSO sprays was evaluated on hosta, ferns and azaleas. In each instance, groups of 6 plants were sprayed with 1%, 2%, 5% or 10% aqueous DMSO.

azaleas = experiment: Phytotoxicity of DMSO sprays on azaleas; type: in vivo, azalea
Experimental: as §1

ferns = experiment: Phytotoxicity of DMSO sprays on ferns; type: in vivo
Experimental: as §1

cacao seedling = details: aqueous solutions containing 40% or greater amounts of DMSO; cited from earlier work
sickle pod [1] = experiment: Greenhouse control of sickle pod by glyphosate with/without DMSO; type: in vivo
sickle pod [2] = experiment: as above; type: in vivo; remark: listed apart in the source
Experimental: Glyphosate (N-(phosphonomethyl) glycine), the active agent (41%) in Composition B and other similar non-selective herbicidal products for control of many annual and perennial grasses, broadleaf weeds, woody shrubs and trees was evaluated in greenhouse studies. The LD50 range for glyphosate in the commercial concentrate Composition B on sickle pod grown in the greenhouse was established at 0.06%, and […].
Data showing effectiveness for control of sickle pod at concentration 0.06% and 0.3% in carrier with 3% DMSO are shown below. The testing procedure used 12 sickle pod 3 inches high selected for uniformity in each treatment. The rating of injury to each plant was based on visual rating of herbicidal activity with +=10%, ++=25%, +++=50%, ++++−75% and dead plants=[…].

Row | SMILES | Effects (hosta; hosta sprayed with 2% aqueous DMSO) | Effects (hosta; hosta sprayed with 5% aqueous DMSO) | Effects (hosta; hosta sprayed with 10% aqueous DMSO) | Effects (azaleas; azalea sprayed with 2% aqueous DMSO) | Effects (azaleas; azalea sprayed with 5% aqueous DMSO) | Effects (azaleas; azalea sprayed with 10% aqueous DMSO) | Effects (ferns; ferns sprayed with 2% aqueous DMSO) | Effects (ferns; ferns sprayed with 5% aqueous DMSO) | Effects (ferns; ferns sprayed with 10% aqueous DMSO) | effect on cacao seedling (cacao seedling) | % control of sickle pod (sickle pod [1]; 0.03% glyphosate with 3% DMSO, 12 days) [%] | sickle pod control with 3% DMSO versus without DMSO (sickle pod [1]; glyphosate at 0.06% and 0.03%, 3% DMSO present) | % control of sickle pod (sickle pod [2]; 0.03% glyphosate only, 12 days) [%] | % control of sickle pod (sickle pod [2]; 0.06% glyphosate only, 12 days) [%] | % control of sickle pod (sickle pod [2]; 0.06% glyphosate only, 20 days) [%] | % control of sickle pod (sickle pod [2]; 0.06% glyphosate only, 30 days) [%] | % control of sickle pod (sickle pod [2]; 0.06% glyphosate with 3% DMSO, 12 days) [%] | % control of sickle pod (sickle pod [2]; 0.06% glyphosate, 3% DMSO, 20 days) [%] | control of sickle pod over a 30 day interval with 3% DMSO versus glyphosate only (sickle pod [2]; 0.06% glyphosate, 3% DMSO, 30 day interval) | % control of sickle pod (sickle pod [2]; 0.06% glyphosate, 3% DMSO, 30 days) [%]
1 | C[S+](C)[O-] [DMSO, Dimethylsulfoxide] | non-toxic | non-toxic | Margina burn | non-toxic | non-toxic | non-toxic | non-toxic | burn on fron tips | burn on fron tips | marginal necroses |  |  |  |  |  |  |  |  |  | 
2 | O=C(O)CNCP(=O)(O)O [glyphosate, N-(phosphonomethyl) glycine] |  |  |  |  |  |  |  |  |  |  | 85 | significant improvement | 54 | 51 | 43 | 85 | 90 | 85 | improved early and sustained control | 96

From patent US20020049139A1, “Herbicidal compositions containing DMSO” (priority 1997, published 2002)
